Measured values as given in patent US20080234262A1 (Wyeth, priority 2007, published 2008).
pIC50: −log10 of the molar value.

How the values were obtained:
breast line MDA468 = experiment: In vitro cell culture growth assay (MTS), MDA468; assay type: cell-based, human; conditions: MDA468 cells, three days after drug treatment
Outline: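 MDA468 or LNCap cells received inhibitors one day after plating and were grown for three days. Viable cell density read by MTS conversion, absorbance 490 nm, expressed as percent of control growth versus vehicle-treated cells on the same plate.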

PI3K = PI3K (Homo sapiens, UniProt P42336); experiment: Fluorescence polarization assay for PI3K; assay type: biochemical; conditions: PI3Kα; read-out: PI3Kα IC50;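 also: PI3K kinase reaction on PIP2 with ATP, 30-60 min, product sensed by GST-GRP with red probe in fluorescence polarization (mP), controls without enzyme and at zero time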
prostate line LNCap = experiment: In vitro cell culture growth assay (MTS), LNCap; assay type: cell-based, human; conditions: LNCap cells, three days after drug treatment

Sequence of PI3K (P42336 whole entry): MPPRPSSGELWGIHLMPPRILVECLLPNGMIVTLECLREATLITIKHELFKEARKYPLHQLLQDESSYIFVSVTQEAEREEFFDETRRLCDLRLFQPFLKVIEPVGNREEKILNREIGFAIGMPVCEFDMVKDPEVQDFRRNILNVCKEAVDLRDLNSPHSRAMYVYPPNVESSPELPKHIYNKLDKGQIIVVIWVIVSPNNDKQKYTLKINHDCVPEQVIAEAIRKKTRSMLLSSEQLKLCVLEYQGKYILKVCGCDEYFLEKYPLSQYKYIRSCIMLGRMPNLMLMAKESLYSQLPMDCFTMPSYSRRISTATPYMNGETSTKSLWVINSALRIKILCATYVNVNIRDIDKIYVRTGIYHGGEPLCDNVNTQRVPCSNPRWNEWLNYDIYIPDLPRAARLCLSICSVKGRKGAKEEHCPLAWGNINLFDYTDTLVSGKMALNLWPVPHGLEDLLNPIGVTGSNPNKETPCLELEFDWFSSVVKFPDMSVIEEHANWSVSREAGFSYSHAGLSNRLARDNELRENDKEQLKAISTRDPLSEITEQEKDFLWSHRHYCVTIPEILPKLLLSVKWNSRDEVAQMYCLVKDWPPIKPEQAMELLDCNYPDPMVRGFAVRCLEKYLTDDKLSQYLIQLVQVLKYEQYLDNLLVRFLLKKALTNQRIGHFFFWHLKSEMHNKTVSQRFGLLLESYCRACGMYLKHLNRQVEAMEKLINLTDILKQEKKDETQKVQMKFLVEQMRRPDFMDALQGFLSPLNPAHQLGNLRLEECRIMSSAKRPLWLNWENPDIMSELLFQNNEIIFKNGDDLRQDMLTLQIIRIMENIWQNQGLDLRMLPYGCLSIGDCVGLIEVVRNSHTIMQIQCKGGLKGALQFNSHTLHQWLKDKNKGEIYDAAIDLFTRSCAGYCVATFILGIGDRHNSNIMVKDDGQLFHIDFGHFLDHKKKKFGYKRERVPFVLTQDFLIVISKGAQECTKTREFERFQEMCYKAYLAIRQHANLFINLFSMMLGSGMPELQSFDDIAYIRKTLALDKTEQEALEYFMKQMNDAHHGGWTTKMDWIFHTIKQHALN
Sequence of PI3K (P27986 whole entry partner): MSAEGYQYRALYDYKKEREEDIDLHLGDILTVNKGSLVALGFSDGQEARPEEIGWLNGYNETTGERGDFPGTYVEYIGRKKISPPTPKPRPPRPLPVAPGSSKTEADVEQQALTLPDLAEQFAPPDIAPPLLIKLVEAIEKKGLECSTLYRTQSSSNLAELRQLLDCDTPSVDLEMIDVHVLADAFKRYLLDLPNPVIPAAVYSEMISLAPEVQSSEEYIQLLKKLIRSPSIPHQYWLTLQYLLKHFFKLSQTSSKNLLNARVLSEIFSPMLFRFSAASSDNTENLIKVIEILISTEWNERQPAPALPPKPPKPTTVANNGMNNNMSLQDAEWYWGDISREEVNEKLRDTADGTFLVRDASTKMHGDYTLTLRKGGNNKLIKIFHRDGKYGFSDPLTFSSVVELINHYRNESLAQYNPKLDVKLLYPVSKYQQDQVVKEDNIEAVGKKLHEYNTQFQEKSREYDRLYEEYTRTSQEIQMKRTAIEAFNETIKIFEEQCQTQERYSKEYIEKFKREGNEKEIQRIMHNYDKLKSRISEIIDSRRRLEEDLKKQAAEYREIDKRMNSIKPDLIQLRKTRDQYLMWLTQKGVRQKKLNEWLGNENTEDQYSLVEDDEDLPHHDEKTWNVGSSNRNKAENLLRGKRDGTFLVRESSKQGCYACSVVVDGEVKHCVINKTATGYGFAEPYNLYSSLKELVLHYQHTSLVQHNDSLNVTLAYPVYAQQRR

Structure (SMILES)	pIC50 (PI3K)	pIC50 (prostate line LNCap)	pIC50 (breast line MDA468)	pIC50 (breast line MDA468; Homo sapiens, 72 h)
CNC(=O)Nc1ccc(-c2nc(N3CCOCC3)c3cnn(C4CCN(Cc5cccnc5Cl)CC4)c3n2)cc1 [Compound 635, 1-[4-(1-{1-[(2-chloropyridin-3-yl)methyl]piperidin-4-yl}-4-morpholin-4-yl-1H-pyrazolo[3,4-d]pyrimidin-6-yl)phenyl]-3-methylurea]	7.05	7.35	6.96	–
CNC(=O)Nc1ccc(-c2nc(N3CCOCC3)c3cnn(C4CCN(Cc5cncc(F)c5)CC4)c3n2)cc1 [Compound 637, 1-[4-(1-{1-[(5-fluoropyridin-3-yl)methyl]piperidin-4-yl}-4-morpholin-4-yl-1H-pyrazolo[3,4-d]pyrimidin-6-yl)phenyl]-3-methylurea]	6.82	6.96	6.26	–
O=C(Nc1ccc(-c2nc(N3CCOCC3)c3cnn(C4CCN(Cc5cccnc5)CC4)c3n2)cc1)NC1CC1 [Compound 649, 1-cyclopropyl-3-(4-{4-morpholin-4-yl-1-[1-(pyridin-3-ylmethyl)piperidin-4-yl]-1H-pyrazolo[3,4-d]pyrimidin-6-yl}phenyl)urea]	6.36	> 7.57	7.07	–
COC(=NC#N)Nc1ccc(-c2nc(N3CCOCC3)c3cnn(C4CCN(Cc5cccnc5)CC4)c3n2)cc1 [Compound 654, methyl N′-cyano-N-(4-{4-morpholin-4-yl-1-[1-(pyridin-3-ylmethyl)piperidin-4-yl]-1H-pyrazolo[3,4-d]pyrimidin-6-yl}phenyl)imidocarbamate]	6.23	5.66	5.89	–
CNC(=O)Nc1ccc(-c2nc(N3CCOCC3)c3cnn(C4CCN(C(=O)c5ccccn5)CC4)c3n2)cc1 [Compound 662, 1-methyl-3-(4-{4-morpholin-4-yl-1-[1-(pyridin-2-ylcarbonyl)piperidin-4-yl]-1H-pyrazolo[3,4-d]pyrimidin-6-yl}phenyl)urea]	6.91	6.92	6.66	–
CNC(=O)Nc1ccc(-c2nc(N3CCOCC3)c3cnn(C4CCN(C(=O)c5cnccc5C)CC4)c3n2)cc1 [Compound 663, 1-methyl-3-[4-(1-{1-[(4-methylpyridin-3-yl)carbonyl]piperidin-4-yl}-4-morpholin-4-yl-1H-pyrazolo[3,4-d]pyrimidin-6-yl)phenyl]urea]	6.64	6.49	6.37	–
CNC(=O)Nc1ccc(-c2nc(N3CCOCC3)c3cnn(C4CCN(C(=O)c5ccc(C)nc5)CC4)c3n2)cc1 [Compound 664, 1-methyl-3-[4-(1-{1-[(6-methylpyridin-3-yl)carbonyl]piperidin-4-yl}-4-morpholin-4-yl-1H-pyrazolo[3,4-d]pyrimidin-6-yl)phenyl]urea]	6.93	6.48	6.57	–
CNC(=O)Nc1ccc(-c2nc(N3CCOCC3)c3cnn(C4CCN(C(=O)c5ccc(F)nc5)CC4)c3n2)cc1 [Compound 665, 1-[4-(1-{1-[(6-fluoropyridin-3-yl)carbonyl]piperidin-4-yl}-4-morpholin-4-yl-1H-pyrazolo[3,4-d]pyrimidin-6-yl)phenyl]-3-methylurea]	7.00	6.60	6.57	–
CNC(=O)Nc1ccc(-c2nc(N3CCOCC3)c3cnn(C4CCN(C(=O)c5ccc(Cl)nc5)CC4)c3n2)cc1 [Compound 668, 1-[4-(1-{1-[(6-chloropyridin-3-yl)carbonyl]piperidin-4-yl}-4-morpholin-4-yl-1H-pyrazolo[3,4-d]pyrimidin-6-yl)phenyl]-3-methylurea]	7.08	6.82	6.39	–
CNC(=O)Nc1ccc(-c2nc(N3CCOCC3)c3cnn(C4CCN(C(=O)c5cccnc5Cl)CC4)c3n2)cc1 [Compound 669, 1-[4-(1-{1-[(2-chloropyridin-3-yl)carbonyl]piperidin-4-yl}-4-morpholin-4-yl-1H-pyrazolo[3,4-d]pyrimidin-6-yl)phenyl]-3-methylurea]	7.00	7.10	6.34	–

More lines, in order of rising pIC50 (PI3K), values ahead:

pIC50 (PI3K)	pIC50 (prostate line LNCap)	Structure (SMILES)	pIC50 (breast line MDA468)	pIC50 (breast line MDA468; Homo sapiens, 72 h)
7.08	6.96	CNC(=O)Nc1ccc(-c2nc(N3CCOCC3)c3cnn(C4CCN(C(=O)c5cccc(C(C)=O)c5)CC4)c3n2)cc1 [Compound 667, 1-(4-{1-[1-(3-acetylbenzoyl)piperidin-4-yl]-4-morpholin-4-yl-1H-pyrazolo[3,4-d]pyrimidin-6-yl}phenyl)-3-methylurea]	6.82	–
7.09	7.15	CNC(=O)Nc1ccc(-c2nc(N3CCOCC3)c3cnn(C4CCN(Cc5cnccc5OC)CC4)c3n2)cc1 [Compound 636, 1-[4-(1-{1-[(4-methoxypyridin-3-yl)methyl]piperidin-4-yl}-4-morpholin-4-yl-1H-pyrazolo[3,4-d]pyrimidin-6-yl)phenyl]-3-methylurea]	6.66	–
7.14	7.02	CNC(=O)Nc1ccc(-c2nc(N3CCOCC3)c3cnn(C4CCN(Cc5cncc(Br)c5)CC4)c3n2)cc1 [Compound 638, 1-[4-(1-{1-[(5-bromopyridin-3-yl)methyl]piperidin-4-yl}-4-morpholin-4-yl-1H-pyrazolo[3,4-d]pyrimidin-6-yl)phenyl]-3-methylurea]	6.25	–
7.30	7.40	CNC(=O)Nc1ccc(-c2nc(N3CCOCC3)c3cnn(C4CCN(Cc5ccccc5C)CC4)c3n2)cc1 [Compound 673, 1-methyl-3-(4-{1-[1-(2-methylbenzyl)piperidin-4-yl]-4-morpholin-4-yl-1H-pyrazolo[3,4-d]pyrimidin-6-yl}phenyl)urea]	6.74	–
7.38	7.28	CNC(=O)Nc1ccc(-c2nc(N3CCOCC3)c3cnn(C4CCN(Cc5cccc(C)c5)CC4)c3n2)cc1 [Compound 674, 1-methyl-3-(4-{1-[1-(3-methylbenzyl)piperidin-4-yl]-4-morpholin-4-yl-1H-pyrazolo[3,4-d]pyrimidin-6-yl}phenyl)urea]	6.72	–
7.44	7.22	CNC(=O)Nc1ccc(-c2nc(N3CCOCC3)c3cnn(C4CCN(Cc5ccccc5O)CC4)c3n2)cc1 [Compound 644, 1-(4-{1-[1-(2-hydroxybenzyl)piperidin-4-yl]-4-morpholin-4-yl-1H-pyrazolo[3,4-d]pyrimidin-6-yl}phenyl)-3-methylurea]	6.49	–
7.46	7.42	CNC(=O)Nc1ccc(-c2nc(N3CCOCC3)c3cnn(C4CCN(Cc5ccccc5Cl)CC4)c3n2)cc1 [Compound 641, 1-(4-{1-[1-(2-chlorobenzyl)piperidin-4-yl]-4-morpholin-4-yl-1H-pyrazolo[3,4-d]pyrimidin-6-yl}phenyl)-3-methylurea]	6.74	–
7.47	> 7.57	CNC(=O)Nc1ccc(-c2nc(N3CCOCC3)c3cnn(C4CCN(Cc5ccc(F)cc5)CC4)c3n2)cc1 [Compound 671, 1-(4-{1-[1-(4-fluorobenzyl)piperidin-4-yl]-4-morpholin-4-yl-1H-pyrazolo[3,4-d]pyrimidin-6-yl}phenyl)-3-methylurea]	6.68	–
7.52	7.57	CNC(=O)Nc1ccc(-c2nc(N3CCOCC3)c3cnn(C4CCN(Cc5ccc(Br)nc5)CC4)c3n2)cc1 [Compound 634, 1-[4-(1-{1-[(6-bromopyridin-3-yl)methyl]piperidin-4-yl}-4-morpholin-4-yl-1H-pyrazolo[3,4-d]pyrimidin-6-yl)phenyl]-3-methylurea]	7.10	–
7.52	7.57	CNC(=O)Nc1ccc(-c2nc(N3CCOCC3)c3cnn(C4CCN(Cc5cccc(F)c5)CC4)c3n2)cc1 [Compound 672, 1-(4-{1-[1-(3-fluorobenzyl)piperidin-4-yl]-4-morpholin-4-yl-1H-pyrazolo[3,4-d]pyrimidin-6-yl}phenyl)-3-methylurea]	6.82	–
7.55	6.85	CNC(=O)Nc1ccc(-c2nc(N3CCOCC3)c3cnn(C4CCN(Cc5cccc(O)c5)CC4)c3n2)cc1 [Compound 642, 1-(4-{1-[1-(3-hydroxybenzyl)piperidin-4-yl]-4-morpholin-4-yl-1H-pyrazolo[3,4-d]pyrimidin-6-yl}phenyl)-3-methylurea]	6.38	–
7.60	> 7.57	CNC(=O)Nc1ccc(-c2nc(N3CCOCC3)c3cnn(C4CCN(Cc5ccc(C)cc5)CC4)c3n2)cc1 [Compound 675, 1-methyl-3-(4-{1-[1-(4-methylbenzyl)piperidin-4-yl]-4-morpholin-4-yl-1H-pyrazolo[3,4-d]pyrimidin-6-yl}phenyl)urea]	6.96	–
7.74	7.40	O=C(Nc1ccc(-c2nc(N3CCOCC3)c3cnn(C4CCN(C(=O)c5cccnc5)CC4)c3n2)cc1)Nc1ccsc1 [Compound 658, 1-(4-{4-morpholin-4-yl-1-[1-(pyridin-3-ylcarbonyl)piperidin-4-yl]-1H-pyrazolo[3,4-d]pyrimidin-6-yl}phenyl)-3-(3-thienyl)urea]	7.12	–
7.85	7.46	O=C(Nc1ccc(-c2nc(N3CCOCC3)c3cnn(C4CCN(C(=O)c5cccnc5)CC4)c3n2)cc1)Nc1cccs1 [Compound 657, 1-(4-{4-morpholin-4-yl-1-[1-(pyridin-3-ylcarbonyl)piperidin-4-yl]-1H-pyrazolo[3,4-d]pyrimidin-6-yl}phenyl)-3-(2-thienyl)urea]	–	7.40
8.10	> 7.57	O=C(Nc1ccc(-c2nc(N3CCOCC3)c3cnn(C4CCN(Cc5cccnc5)CC4)c3n2)cc1)Nc1cccs1 [Compound 648, 1-(4-{4-morpholin-4-yl-1-[1-(pyridin-3-ylmethyl)piperidin-4-yl]-1H-pyrazolo[3,4-d]pyrimidin-6-yl}phenyl)-3-(2-thienyl)urea]	7.22	–
